Test results from patent US20230087118A1, “IMIDAZO[1,2-a][sequence] DERIVATIVES AND THEIR USE IN THE TREATMENT OF DISEASE” (priority 2019, published 2023).

target: T1, IRAK4 (Homo sapiens, UniProt Q9NWZ3); assay: 2-hour 10 μM ATP Biochemical Assay (MesoScale Detection format; IRAK4 phosphorylation of biotin labeled IRAK1 activation loop peptide); settings: 0.1 nM IRAK4
T1 sequence (Q9NWZ3 1-460): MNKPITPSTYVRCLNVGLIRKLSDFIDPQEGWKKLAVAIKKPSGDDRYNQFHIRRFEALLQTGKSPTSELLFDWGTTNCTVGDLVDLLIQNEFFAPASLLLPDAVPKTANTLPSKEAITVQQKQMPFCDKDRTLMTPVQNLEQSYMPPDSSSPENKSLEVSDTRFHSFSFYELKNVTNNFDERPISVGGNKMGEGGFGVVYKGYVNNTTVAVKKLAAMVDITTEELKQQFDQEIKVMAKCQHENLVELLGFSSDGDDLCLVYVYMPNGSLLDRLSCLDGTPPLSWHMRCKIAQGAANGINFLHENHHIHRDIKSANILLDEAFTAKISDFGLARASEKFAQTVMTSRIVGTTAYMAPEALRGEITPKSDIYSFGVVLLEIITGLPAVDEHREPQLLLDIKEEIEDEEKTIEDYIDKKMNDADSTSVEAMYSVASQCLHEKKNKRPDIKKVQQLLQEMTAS
Procedure: Compounds of the invention were assessed for their ability to inhibit IRAK4 activity. The inhibitory properties of the compounds of the invention described herein can be evidenced by testing in any one of the following assays.
The 2-hour 10 μM ATP Biochemical Assay employs a MesoScale Detection (MSD) format. The kinase reaction is based on the IRAK4 phosphorylation of a biotin labeled peptide (IRAK1 activation loop sequence 360-389).
The kinase reaction in 30 μl is carried out in wells of a 384 well polypropylene assay plate, with 0.1 nM IRAK4, 1.6 μM of biotinylated peptide substrate and 10 μM ATP in 50 mM Hepes, pH 7.5, 60 mM NaCl, 5 mM MgCl2, 0.25 mM MnCl2, 2 mM DTT, 0.01% BSA, and 1% DMSO (from compound DMSO stocks), for 2 hour at room temperature. The activity is quenched with 11 μl of 70 mM EDTA, pH 8.
To detect the phosphorylated biotinylated peptide substrate, 30 μl of the quenched reaction mixture is added to equivalent wells of a 384 well streptavidin coated MesoScale plate (Meso Scale Discovery #L21SA-1). After a 1 hour incubation of the plate for 1 hour at room temperature with gentle mixing, the plate wells are washed 3 times with 50 mM Tris, pH 7.5, 150 mM NaCl, 0.02% Tween-20.
A 25 μl volume of 1:500 anti-P-Threonine Rabbit polyclonal Antibody plus 1:500 Goat-anti-Rabbit Sulfo Tag Antibody (Meso Scale Discovery R32AB-1) in 50 mM Tris, pH 7.5, 150 mM NaCl, 0.02% Tween-20 plus 2% BSA is then added to each well. After a 1-hour incubation of the plate for 1 hour at room temperature with gentle mixing, the plate wells are washed, 3 times with 50 mM Tris, pH 7.5, 150 mM NaCl, 0.02% Tween-20. A 40 μl volume of 2× MSD Read Buffer (Meso Scale Discovery R92TC-1) is added to each well, and the plate is read immediately in an MSD Plate Reader (Meso Scale Discovery).

Row | SMILES | IC50 [µM]
1 | COc1cccc(NC(=O)c2cn3cc(CC(C)C#N)nc3cc2OC)n1 (stereo not shown) [Example 12] | 0.032
2 | COc1cc2nc(C3CCOCC3)cn2cc1C(=O)Nc1cc(F)cc(F)c1F [Example 120] | 0.018
3 | COc1cc2nc(C3CCOCC3)cn2cc1C(=O)N[C@@H]1C[C@H]1C1CCC1 (racemic) [Example 154] | 0.412
4 | COc1cc2nc(C3CCOCC3)cn2cc1C(=O)N[C@@]12CCC[C@@H]1C2 (racemic) [Example 149] | 0.794
5 | COc1cc2nc(C3CCOCC3)cn2cc1C(=O)Nc1ccccc1CC(C)C [Example 140] | 0.822
6 | COc1cc2nc(C3CCOCC3)cn2cc1C(=O)Nc1ccc(F)c(F)c1C [Example 181] | 0.169
7 | COc1cc2nc(CC(C)C#N)cn2cc1C(=O)Nc1cccc(C(F)(F)F)n1 (stereo not shown) [Example 42] | 0.031
8 | COc1cc2nc(C3CCOCC3)cn2cc1C(=O)Nc1cccc2c1C1CCC2O1 (stereo not shown) [Example 130] | 0.14
9 | COc1cc2nc(C3CCOCC3)cn2cc1C(=O)Nc1cc(F)ccc1OC(C)C [Example 106] | 0.08
10 | COc1cccc(NC(=O)c2cn3cc(C4CCOCC4)nc3cc2OC)c1 [Example 157] | 0.021
11 | COc1cc2nc(C3CCOCC3)cn2cc1C(=O)Nc1cc(C)cc(C)c1 [Example 178] | 0.305
12 | COc1cc2nc(C3CCOCC3)cn2cc1C(=O)Nc1ccns1 [Example 156] | 0.147
13 | COc1cc2nc(C3CCOCC3)cn2cc1C(=O)NC1CC(OC)c2ccccc21 (stereo not shown) [Example 136] | 0.944
14 | COc1cc2nc(C3CCOCC3)cn2cc1C(=O)Nc1cc(C)cc(C)n1 [Example 127] | 0.2
15 | COc1cc2nc(C3CCOCC3)cn2cc1C(=O)Nc1cc(Cl)cc(Cl)c1 [Example 133] | 0.255
16 | CCc1ncc(F)cc1NC(=O)c1cn2cc(C3CCOCC3)nc2cc1OC [Example 128] | 0.067
17 | COc1cccc(NC(=O)c2cn3cc(CC4COCCO4)nc3cc2OC)n1 (stereo not shown) [Example 15] | 0.031
18 | COc1cc(F)cc(NC(=O)c2cn3cc(C4CCOCC4)nc3cc2OC)c1 [Example 151] | 0.046
19 | COc1cc2nc(C3CCOCC3)cn2cc1C(=O)Nc1cc(F)c(F)c(F)c1 [Example 137] | 0.132
20 | COc1cc2nc(C3CCOCC3)cn2cc1C(=O)Nc1cnsc1 [Example 138] | 0.065

Row | SMILES | IC50 [µM]
21 | COc1cc2nc(C3CCOCC3)cn2cc1C(=O)Nc1cc(C)cc(C)c1OC [Example 166] | 0.306
22 | COc1cc2nc(C3CC34CCOC4)cn2cc1C(=O)Nc1cccc(C(F)(F)F)n1 (stereo not shown) [Example 39] | 0.024
23 | COc1cc2nc(C3CCOCC3)cn2cc1C(=O)Nc1cccnc1C [Example 131] | 0.025
24 | COc1cc2nc(C3CCOCC3)cn2cc1C(=O)N[C@@H]1CCCC[C@H]1OC (racemic) [Example 155] | 0.23
25 | COc1cc2nc(C3CCOCC3)cn2cc1C(=O)Nc1cccnc1C1CC1 [Example 148] | 0.087
26 | CCc1ccccc1NC(=O)c1cn2cc(C3CCOCC3)nc2cc1OC [Example 167] | 0.073
27 | COc1cc2nc(C3CCOCC3)cn2cc1C(=O)Nc1cc(F)cc(F)c1 [Example 152] | 0.023
28 | COc1cccc(NC(=O)c2cn3cc(C4(OC)CC4)nc3cc2OC)n1 [Example 14] | 0.026
29 | COc1cc2nc(C3CCOCC3)cn2cc1C(=O)NC1CCCC(C)C1C (stereo not shown) [Example 175] | 0.744
30 | COc1cc2nc(C3CCOCC3)cn2cc1C(=O)NC1CCCC2C1C2(F)F (stereo not shown) [Example 117] | 0.567
31 | COc1cc2nc(C3CCOCC3)cn2cc1C(=O)Nc1cccc(C)c1C [Example 153] | 0.019
32 | COc1cc2nc(C3CCOCC3)cn2cc1C(=O)Nc1ccc(F)c(C(F)F)c1 [Example 159] | 0.02
33 | O=C(Nc1ccn(C(F)F)n1)c1ccc2nc(C3CCOCC3)cn2c1 [Example 49] | 0.35
34 | COc1cc2nc(C3CCOCC3)cn2cc1C(=O)Nc1scnc1C [Example 105] | 0.043
35 | COc1cc2nc(C3CCOCC3)cn2cc1C(=O)Nc1cc(F)cc(Cl)c1 [Example 172] | 0.021
36 | COc1cc2nc(C3CCOCC3)cn2cc1C(=O)Nc1cc(F)ccn1 [Example 132] | 0.034
37 | COc1cc2nc(C(C)(C)CC#N)cn2cc1C(=O)Nc1cccc(C(F)(F)F)n1 [Example 46] | 0.037
38 | COc1cc(C(=O)Nc2cccc(C(F)F)n2)cn2cc(C3(OC)CC3)nc12 [Example 91, N-(6-(difluoromethyl)pyridin-2-yl)-8-methoxy-2-(1-methoxycyclopropyl)imidazo[1,2-a]pyridine-6-carboxamide] | 0.079
39 | COc1cc2nc(C3CCOCC3)cn2cc1C(=O)Nc1cccc(C2CC2)c1 [Example 163] | 0.688
40 | COc1cc2nc(C3CCOCC3)cn2cc1C(=O)NC1C2CCOC2C12CCC2 (stereo not shown) [Example 124] | 0.122

Next, values leading:

Row | IC50 [µM] | SMILES
41 | 0.009 | COc1cccc(NC(=O)c2cn3cc(C4CC(OC)C4)nc3cc2OC)n1 (stereo not shown) [Example 8]
42 | 0.01 | COc1cc2nc(C3CCOCC3)cn2cc1C(=O)Nc1ccccc1F [Example 147]
43 | 0.008 | COc1cccc(NC(=O)c2cn3cc(CC4CCOCC4)nc3cc2OC)n1 [Example 10]
44 | 0.007 | COc1cccc(NC(=O)c2cn3cc(CC4CCOC4)nc3cc2OC)n1 (stereo not shown) [Example 24]
45 | 0.011 | COc1cc2nc(C3CCOCC3)cn2cc1C(=O)Nc1ccccc1OC(C)C [Example 168]
46 | 0.013 | COc1cc2nc(C3CCOCC3)cn2cc1C(=O)Nc1cccc2c1CCO2 [Example 107]
47 | 0.007 | COc1cc2nc(C3CCOCC3)cn2cc1C(=O)Nc1cccc(Cl)c1 [Example 144]
48 | 0.013 | COc1cc2nc(C3CCOCC3)cn2cc1C(=O)Nc1cccc(C(C)(F)F)c1 [Example 145]
49 | 0.001 | CCOc1cc2nc(C[C@H]3CCOC3)cn2cc1C(=O)Nc1cccc(C(F)F)n1 (single isomer, unassigned) [Example 64]
50 | 0.003 | COc1cc2nc(C3CC4CCC(C3)O4)cn2cc1C(=O)Nc1cccc(C(F)(F)F)n1 (stereo not shown) [Example 44]
51 | 0.005 | COc1cc2nc(C3CCC(OC)C3)cn2cc1C(=O)Nc1cccc(C(F)(F)F)n1 (stereo not shown) [Example 41]
52 | 0.017 | COc1cccc(NC(=O)c2cn3cc(C(C)(C)CC#N)nc3cc2OC)n1 [Example 13]
53 | 0.016 | COc1cc2nc(C3CCOCC3)cn2cc1C(=O)Nc1cccc(F)c1C [Example 129]
54 | 0.003 | COc1cccc(NC(=O)c2cn3cc(C45CC(C(F)F)(C4)C5)nc3cc2OC)n1 [Example 20]
55 | 0.006 | COc1cc(C(=O)Nc2cccc(C(F)(F)F)n2)cn2cc(C3CCOCC3)nc12 [Example 75]
56 | 0.002 | COc1cccc(NC(=O)c2cn3cc(C4CCC(OC)C4)nc3cc2OC)n1 (stereo not shown) [Example 17]
57 | 0.001 | COc1cccc(NC(=O)c2cn3cc(C4CC5CCC(C4)O5)nc3cc2OC)n1 (stereo not shown) [Example 18]
58 | 0.001 | CCOc1cc2nc(C3CCOCC3)cn2cc1C(=O)Nc1cccc(C(F)F)n1 [Example 73]
59 | 0.001 | CCOc1cc2nc(CCCOC)cn2cc1C(=O)Nc1cccc(C(F)F)n1 [Example 85]
60 | 0.008 | COc1cc(C(=O)Nc2cccc(C(F)(F)F)n2)cn2cc(CC3CCOC3)nc12 (stereo not shown) [Example 72]

same assay, conditions: read-out: IRAK4 Biochemical Assay (10 μM ATP, 2 h) IC50, 0.1 nM IRAK4

Row | SMILES | IC50 [µM]
61 | COc1cccc(NC(=O)c2cn3cc(C[C@H]4CCOC4)nc3cc2OC)n1 [Example 50, (S)-7-methoxy-N-(6-methoxypyridin-2-yl)-2-((tetrahydrofuran-3-yl)methyl)imidazo[1,2-a]pyridine-6-carboxamide] | 0.003
62 | COc1cccc(NC(=O)c2cn3cc(C[C@@H]4CCOC4)nc3cc2OC)n1 [Example 51, (R)-7-methoxy-N-(6-methoxypyridin-2-yl)-2-((tetrahydrofuran-3-yl)methyl)imidazo[1,2-a]pyridine-6-carboxamide] | 0.003

target: T1, IRAK4; assay: biochemical; settings: not given

Row | SMILES | IC50 [µM]
63 | COc1cc2nc(C3CCOCC3)cn2cc1C(=O)Nc1ccccc1F [Example 147] | 0.0417
64 | COc1cccc(NC(=O)c2cn3cc(CC4CCOC4)nc3cc2OC)n1 (stereo not shown) [Example 24] | 0.021
65 | COc1cc2nc(C3CCOCC3)cn2cc1C(=O)Nc1ccccc1OC(C)C [Example 168] | 0.0378
66 | COc1cc2nc(C3CCOCC3)cn2cc1C(=O)Nc1cccc2c1CCO2 [Example 107] | 0.04
67 | COc1cc2nc(C3CCOCC3)cn2cc1C(=O)Nc1cccc(Cl)c1 [Example 144] | 0.0251
68 | COc1cc2nc(C3CCOCC3)cn2cc1C(=O)Nc1cccc(C(C)(F)F)c1 [Example 145] | 0.0419
69 | CCOc1cc2nc(C[C@H]3CCOC3)cn2cc1C(=O)Nc1cccc(C(F)F)n1 (single isomer, unassigned) [Example 64] | 0.0017

same assay, conditions: IRAK4 Biochemical Assay (1 mM ATP, 2 h) IC50 (μM), 1 mM ATP, 2 h, 100 pM IRAK4

Row | SMILES | IC50 [µM]
70 | COc1cccc(NC(=O)c2cn3cc(C4CC(OC)C4)nc3cc2OC)n1 (stereo not shown) [Example 8] | 0.0263
71 | COc1cccc(NC(=O)c2cn3cc(CC4CCOCC4)nc3cc2OC)n1 [Example 10] | 0.0293
72 | COc1cc2nc(C3CC4CCC(C3)O4)cn2cc1C(=O)Nc1cccc(C(F)(F)F)n1 (stereo not shown) [Example 44] | 0.0088
73 | COc1cc2nc(C3CCC(OC)C3)cn2cc1C(=O)Nc1cccc(C(F)(F)F)n1 (stereo not shown) [Example 41] | 0.0157
